Measurements as given in publication PMC5972032, “Evolution of substrate specificity in the Nucleobase-Ascorbate Transporter (NAT) protein family” (Microbial Cell, 2018).

Target: T1, UapA (Aspergillus nidulans, UniProt Q07307)
T1 construct: full-length, C-terminal GFP tag (plasmid pAN510-GFP), expressed in A. nidulans uapAΔ uapCΔ azgAΔ pabaA1 argB2; homodimer
Test: inhibition of [3H]-xanthine uptake in germinating conidiospores
Format: cell-based
Source text: inhibition of [3H]-xanthine uptake in germinating conidiospores on UapA | wild-type UapA can indeed bind L-ascorbate with very low affinity, reflected in a Ki

T1 sequence (Q07307 whole entry): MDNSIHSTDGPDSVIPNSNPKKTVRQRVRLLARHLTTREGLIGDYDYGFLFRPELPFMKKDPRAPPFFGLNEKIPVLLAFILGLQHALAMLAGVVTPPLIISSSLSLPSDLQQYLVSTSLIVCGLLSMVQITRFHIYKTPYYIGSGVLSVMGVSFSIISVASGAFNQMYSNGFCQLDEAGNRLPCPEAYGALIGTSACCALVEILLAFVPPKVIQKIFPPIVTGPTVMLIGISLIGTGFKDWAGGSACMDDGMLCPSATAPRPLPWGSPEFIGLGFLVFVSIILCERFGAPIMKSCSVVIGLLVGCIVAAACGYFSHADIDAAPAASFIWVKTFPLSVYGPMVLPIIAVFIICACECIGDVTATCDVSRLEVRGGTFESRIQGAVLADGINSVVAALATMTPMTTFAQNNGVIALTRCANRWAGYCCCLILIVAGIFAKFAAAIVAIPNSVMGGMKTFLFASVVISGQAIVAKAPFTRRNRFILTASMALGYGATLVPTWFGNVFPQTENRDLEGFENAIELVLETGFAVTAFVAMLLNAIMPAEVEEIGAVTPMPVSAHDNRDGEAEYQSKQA

O=C1O[C@H]([C@@H](O)CO)C(O)=C1O [L-ascorbate]
Ki: ~17 mM
